Reference: patent US20130216590A1, “TOPICAL ANTIVIRAL FORMULATIONS FOR PREVENTION OF TRANSMISSION OF HSV-2” (priority 2010, published 2013)
Values after ≈ are worked out from the molar mass of the structure shown. Like-named read-outs stand apart in the source and are kept apart here.

Legend:
HSV-1 and HSV-2 = assay: HSV cytopathic effect (CPE) reduction assay, laboratory strains, HEL cell monolayers and PHKs; assay type: cell-based, herpes simplex virus; settings: HEL, read-out: EC50, inhibition of virus-induced cytopathicity
[1] = test system: thymidine kinase-deficient HSV-1 clinical isolates; assay: microbe, parasite or virus in culture; assay type: cell-based; settings: Human alphaherpesvirus 1, Fibroblast
[2] = test system: thymidine kinase-deficient HSV-2 clinical isolates; assay: microbe, parasite or virus in culture; assay type: cell-based; settings: Human alphaherpesvirus 2, Fibroblast
HSV-2 (G) = assay: Co-infection of TZM-bl cells with HIV-1 and HSV-2: HSV-2-induced cytopathicity; assay type: cell-based; settings: TZM-bl cultures co-infected with HIV-1(NL4.3) and HSV-2(G)
Description: The TZM-bl cell line is derived from HeLa cells and expresses high levels of CD4, CCR5 and CXCR4. In addition, this cell line is stably transduced with a LTR-driven firefly luciferase and E. coli-galactosidase gene (15). In a 96-well tray, 10,000 TZM-bl cells were seeded on day 1. […] Next, 100 μl of a virus suspension containing either HIV-1 (NL4.3), HSV-2 (G) or both viruses together was administered. Two to three days post infection, HIV-1 infection was monitored based on the determination of luciferase activity. For this means, 100 μl of culture supernatant was removed and 100 μl of Bright-Glo Luciferase Assay Substrate (Promega, Madison, USA) was added. The luminescence signal was measured using the Safire 2 microtiter plate reader (Tecan, Männedorf, Switzerland). A control condition containing only mock-infected cells was also included to measure the background luminescence levels. Three days post infection, HSV-2-induced cytopathicity was recorded microscopically based on giant cell formation.

HSV-1 strain F (HSV-1F) = assay: Human ex vivo tonsillar tissue, HSV DNA release by real-time PCR; assay type: cell-based; settings: Human alphaherpesvirus 1, read-out: EC50, suppression of replication
HSV-2 strain G (HSV-2G) = assay: as above; assay type: cell-based
Description: For each experimental condition 16 tissue blocks were immersed in 500 μl of a HSV-2 (strain G) suspension for 2 hours at 37° C., washed three times with PBS and then placed on the gelfoam rafts. Tenofovir was added during the infection and replenished at each culture medium change. Herpes simplex viral replication was evaluated by the release of viral DNA into the culture medium as measured by quantitative real-time PCR (17). HIV-1 replication was evaluated by the release of p24 capsid antigen using a bead-based assay (18).

[3] = test system: HSV-2 strain MS (HSV-2MS); assay: as above; assay type: cell-based
HSV-1 (Kos strain) = assay: In vivo antiviral activity in HSV-1-infected NMRI athymic nude mice; settings: 1% topical, 5 days
Description: (§1) Adult NMRI athymic nude mice (weighing ˜20 g) were scarified on the lumbosacral area over a surface of about 1 cm^2. Mice were inoculated with 5×10^3 PFU of HSV-1 (Kos strain) or 5×10^2 of HSV-2 (G strain) in 50 μL per mouse. […] In each experiment, a group of animals treated with a placebo formulation that was the same as the test formulation without drug was included as a negative control. […] The day of virus inoculation was always considered as day 0. All animal procedures were approved by the K.U. Leuven Animal Care Committee. Development of lesions and mortality were recorded over a one month period. Animals were euthanized when more than 30% loss in body weight or development of paralysis occurred. Survival rates were estimated according to the Kaplan-Meir method and were compared using the log-rank test (Mantel-Cox) test (GraphPad Prism).

HSV-2 (G strain) = assay: In vivo antiviral activity in HSV-2-infected NMRI athymic nude mice
Description: as §1

HIV-1 = settings: cited from earlier work
[4] = Human alphaherpesvirus 2, read-out: EC50, suppression of replication

For `C[C@H](Cn1cnc2c(N)ncnc21)OCP(=O)(O)O` [tenofovir, (R)-9-(2-phosphonylmethoxypropyl)adenine], the EC50 (HSV-1 and HSV-2) was 100 to 200 µg/mL (≈ 348 to 696 µM), the EC50 ([1]; read-out: mean EC50) was ≥ 166 µg/mL and the EC50 ([1]; read-out: range of EC50) was ≥ 117 µg/mL. For the same molecule, the EC50 ([2]; read-out: mean EC50) was 152 µg/mL (≈ 529 µM), the EC50 ([2]; read-out: range of EC50) was 131 to 179 µg/mL (≈ 456 to 623 µM) and the “drug concentration that prevented HSV-2 infection” value (HSV-2 (G)) was ~60 µg/mL. For the same molecule, the EC50 (HSV-1 strain F (HSV-1F)) was 7 µg/mL (≈ 24.4 µM), the “reduction of replication compared to infected donor matched-untreated tissue” value (HSV-2 strain G (HSV-2G); 66 μg/ml, HSV-2G) was 94±7% and the “release of viral DNA in culture medium” value (HSV-2 strain G (HSV-2G); 66 μg/ml, day 9 post infection, IQR 3.6-6.1, untreated 7.6) was 5.2 log10 DNA copies/ml. The EC50 (HSV-2 strain G (HSV-2G); [4]) was 14 µg/mL (≈ 48.7 µM), the “reduction of replication compared to infected donor matched-untreated tissue” value ([3]; 66 μg/ml, HSV-2MS) was 89±2% and the “release of viral DNA in culture medium” value ([3]; 66 μg/ml, day 9 post infection, IQR 5.7-6.1, untreated 7.3) was 5.8 log10 DNA copies/ml. For the same molecule, the EC50 [3, 4] was 19 µg/mL (≈ 66.2 µM), the “morbidity and survival curves compared to the placebo-treated group” value (HSV-1 (Kos strain)) was “significantly delayed” and the “survival curves and morbidity curves versus the placebo group” value (HSV-2 (G strain); DMSO formulation, starting the day of infection) was “statistically significant difference”. For the same molecule, the “appearance of lesions and subsequent death” value (HSV-2 (G strain); formulated in the gel at 1%) was “delayed the appearance of herpes virus-related lesions and subsequent death”, the “reduction of HIV-1 transmission” value (HIV-1; 1% gel, women with high adherence) was 54% and the “overall decrease in the frequency of the sexual transmission of HIV-1” value (HIV-1; formulated as a 1% gel, approximately 900 African women) was 39%.
